Assay results published in US20040122065A1 (priority 2002, published 2004).

Assay: Pharmacokinetic crossover trial: 2 mg sublingual tablet vs 4 mg commercial oral tizanidine (Zanaflex), plasma tizanidine by HPLC
Type: in vivo
Conditions: human
Procedure: Two groups were randomized and there was a one week washout period between administrations. The volunteers were in the fasted state when the drugs were administered. The sublingual tablets were placed under the tongue for 5 minutes and tablet remnants, if any, were swallowed. The oral formulation was administered with a glass of water. Blood samples were taken at 0, 0.5, 1.0, 1.5, 2.0, 2.5, 3.0, 4.0, 5.0, 6.0 and 7.0 hours after administration. […] The samples were blinded from the analysts.

concentration at 0 h (other: sublingual, 2 mg, Plasma Tizanidine Levels, sublingual delivery of 2 mg tizanidine (sublingual tablet), fasted, 0 h after dosing, one column per test subject): < 98.4 ng/g
concentration at 0 h (po, 4 mg): < 98.4 ng/g
SMILES: Clc1ccc2nsnc2c1NC1=NCCN1 [Tizanidine, 5-Chloro-N-(4,5-dihydro-1H-imidazol-2-yl)-2,1,3-benzothiadiazol-4-amine]
